According to publication PMC10779950, “Binding Free Energy Calculation Based on the Fragment Molecular Orbital Method and Its Application in Designing Novel SHP-2 Allosteric Inhibitors” (International Journal of Molecular Sciences, 2024):
Like-named read-outs stand apart in the source and are kept apart here. Blank lines part the entries; values can stand above or below the compound they belong to.

Assays:
[1] = target: T1, SHP2^WT (1–593) (Homo sapiens, UniProt Q06124); assay: SHP-2 prompt fluorescence phosphatase assay (DiFMUP), SHP2^WT; format: biochemical; design: ΔG experiment: unit not given here; settings: for pIC50: from experimental IC50; for ΔG experiment: experimental binding free energy converted from IC50; for ΔGexp: converted from IC50 with ΔGexp ≈ kBTlog IC50; for fold reduced inhibition on morphing the piperazine ring (relative to compound 1): ratio of IC50
T1 construct: made in house; host or cells: E. coli BL21 Star (DE3), pET30 vector
T1 sequence (Q06124 1-593): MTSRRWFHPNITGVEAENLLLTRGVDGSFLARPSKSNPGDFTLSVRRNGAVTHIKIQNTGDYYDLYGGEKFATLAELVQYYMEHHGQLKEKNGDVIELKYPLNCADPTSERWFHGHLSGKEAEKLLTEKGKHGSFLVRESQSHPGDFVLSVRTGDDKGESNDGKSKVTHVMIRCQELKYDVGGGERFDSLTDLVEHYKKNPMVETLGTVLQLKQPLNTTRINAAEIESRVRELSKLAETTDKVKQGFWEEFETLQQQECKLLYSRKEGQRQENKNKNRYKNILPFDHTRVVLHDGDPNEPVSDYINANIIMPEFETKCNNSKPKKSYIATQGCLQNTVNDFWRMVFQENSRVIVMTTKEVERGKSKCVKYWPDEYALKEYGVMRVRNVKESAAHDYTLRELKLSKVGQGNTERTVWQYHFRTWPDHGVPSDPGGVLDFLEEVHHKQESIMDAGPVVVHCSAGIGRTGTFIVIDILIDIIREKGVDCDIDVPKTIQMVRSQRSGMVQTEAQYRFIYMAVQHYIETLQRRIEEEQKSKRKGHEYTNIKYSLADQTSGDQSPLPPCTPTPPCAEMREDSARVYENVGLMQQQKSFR
Procedure: Briefly, the constructs were transformed into BL21 Star^TM (DE3) cells and cultured at 37 °C for 3~4 h. Subsequently, the cells with high expression of SHP2 protein were harvested after being induced by IPTG and grown overnight at 18 °C. Cell pellets were resuspended in lysis buffer (25 mM imidazole, 50 mM Tris−HCl, 500 mM NaCl, 2.5 mM MgCl2, 1 mM tris(2-carboxyethyl)phosphine (TCEP), 1 μg/mL DNase1, and complete EDTA-free protease inhibitor) and lysed using Low Temperature Ultrahigh Pressure Continuous Flow Cell Disrupter (JNBIO), followed by ultracentrifugation. The supernatant was collected. Then, the SHP2 was purified from the collected supernatant by using HisTrap HP chelation column, TEV protease, and HiTrap Q FastFlow column.
Then, the mixture was then incubated at 25 °C for 60 min. To initiate the reaction, the surrogate substrate DiFMUP (Invitrogen, cat. no. D6567, Shuzhou, China, 200 μM) was added and incubated at 25 °C for another 30 min. […] Fluorescence signal was detected using a microplate reader (Bio-Tek, Shanghai, China, Synergy2) at Ex/Em = 340/450 nm. Using control-based normalization, normalized IC50 regression curves were fitted to inhibitor dose response curves.

[2] = system: c-Met; design: method as in earlier work; settings: FEP+ predicted ΔG from the benchmark; cited from earlier work
[3] = system: SYK; design: method as in Schrödinger FEP+ benchmark; settings: FEP+ predicted binding free energy, ref Schrödinger FEP+ benchmark; cited from earlier work
[4] = system: THR-β; assay: Experimental THR-β activity of agonists taken from Hu et al.; format: biochemical; settings: Table S4, converted from the experimental value
From the text: In the initial phase of our investigation, we conducted a retrospective evaluation of FMOScore’s performance concerning thyroid hormone receptor β (THR-β) agonists, using a set of 18 compounds taken from the work of Hu et al. [65]

[5] = system: SYK; settings: experimental binding free energy, ref Schrödinger FEP+ benchmark; cited from earlier work
[6] = system: c-Met; design: method as in earlier work; settings: Schrödinger FEP+ benchmark; cited from earlier work
[7] = system: Eg5; settings: experimental binding free energy, ref Schrödinger FEP+ benchmark; cited from earlier work
[8] = SHP-2_case sheet, designed SHP-2 inhibitors, read-out: IC50uM
[9] = SHP-2_case sheet, same IC50 restated in another unit, read-out: IC50nM
[10] = SHP2^WT, DiFMUP substrate, averages of three independent experiments, read-out: SHP-2 IC50

IC50 [1, 8]: 2.29 µM | pIC50 ([1]; SHP-2_case sheet): 5.64 | IC50 [1, 9]: 2.29 µM | ΔG experiment [1]: -7.69
SMILES: Nc1cc(N2CCC3(CCCC3N)CC2)cnc1Sc1cccc(Cl)c1Cl (stereo not shown) [A-S8]

inhibitory activity against SHP-2 (in words) ([1]; Figure S4, DIFMUP substrate, mean ± SD (n = 3)): potent inhibitory activity | IC50 [1, 10]: 2.29 ± 0.66 µM | ΔGexp [1]: -7.690 kcal/mol
SMILES: Nc1cc(N2CCC3(CCCC3N)CC2)cnc1Sc1cccc(Cl)c1Cl (stereo not shown) [Compound 8, 8-(5-amino-6-((2,3-dichlorophenyl)thio)pyridin-3-yl)-8-azaspiro[4.5]decan-1-amine]
FEP [2]: -9.12 kcal/mol | FEP [3]: -10.6 kcal/mol | ΔGexp [4]: -8.072 kcal/mol | Exp. ΔG [5]: -9.78 kcal/mol | Exp. ΔG [6]: -10.06 kcal/mol

IC50 [1, 8]: 23.5 µM | pIC50 ([1]; SHP-2_case sheet): 4.629 | IC50 [1, 9]: 23.5 µM | ΔG experiment [1]: -6.312
SMILES: Nc1cc(NC2CCNCC2)cnc1-c1cccc(Cl)c1Cl [A-S4]

SMILES: CNC[C@H]1CC[C@@H]2[C@H](O1)c1cc(C(F)(F)F)ccc1N[C@H]2c1ccc(O)cc1 [CHEMBL1083517]
Exp. ΔG [7]: -11.46 kcal/mol

SMILES: CC(C)c1ccc2c(c1)[C@H]1O[C@@H](CNS(=O)(=O)CCCN(C)C)CC[C@H]1[C@H](c1ccccc1)N2 [CHEMBL1084143]
Exp. ΔG [7]: -11.87 kcal/mol

IC50 [1, 10]: 23.5 ± 2.86 µM | ΔGexp [1]: -6.311 kcal/mol | fold reduced inhibition on morphing the piperazine ring (relative to compound 1) [1]: 15 fold
SMILES: Nc1cc(NC2CCNCC2)cnc1-c1cccc(Cl)c1Cl [Compound 4, 2-(2,3-dichlorophenyl)-N5-(piperidin-4-yl) pyridine-3,5-diamine]
FEP [2]: -7.41 kcal/mol | FEP [3]: -9.49 kcal/mol | ΔGexp [4]: -5.453 kcal/mol | Exp. ΔG [5]: -11.36 kcal/mol | Exp. ΔG [6]: -8.9 kcal/mol

SMILES: CNC[C@H]1CC[C@@H]2[C@H](O1)c1cc(C(F)(F)F)ccc1N[C@H]2c1ccc(F)cc1 [CHEMBL1086409]
Exp. ΔG [7]: -9.87 kcal/mol

SMILES: CNC[C@H]1CC[C@@H]2[C@H](O1)c1cc(C3CC3)ccc1N[C@H]2c1ccccc1 [CHEMBL1083836]
Exp. ΔG [7]: -10.86 kcal/mol

IC50 [1, 8]: 15.6 µM | pIC50 ([1]; SHP-2_case sheet): 4.8066 | IC50 [1, 9]: 15.6 µM | ΔG experiment [1]: -6.554
SMILES: Nc1cc(NCC2CCCNC2)cnc1-c1cccc(Cl)c1Cl (stereo not shown) [A-S2]

IC50 [1, 8]: 1.49 µM | pIC50 ([1]; SHP-2_case sheet): 5.826 | IC50 [1, 9]: 1.49 µM | ΔG experiment [1]: -7.943
SMILES: CC1(N)CCN(c2cnc(-c3cccc(Cl)c3Cl)c(N)c2)CC1 [A-S1]

SMILES: CC1(N)CCN(c2cnc(Sc3cccc(Cl)c3Cl)c(N)c2)CC1 [A-S7]
IC50 [1, 8]: 11.2 µM | pIC50 ([1]; SHP-2_case sheet): 4.949 | IC50 [1, 9]: 11.2 µM | ΔG experiment [1]: -6.748

IC50 [1, 8]: 15.1 µM | pIC50 ([1]; SHP-2_case sheet): 4.821 | IC50 [1, 9]: 15.1 µM | ΔG experiment [1]: -6.573
SMILES: CC1(N)CCN(c2cnc(-c3cccc(F)c3Cl)c(N)c2)CC1 [A-S5]

IC50 [1, 10]: 15.6 ± 1.49 µM | ΔGexp [1]: -6.553 kcal/mol | fold reduced inhibition on morphing the piperazine ring (relative to compound 1) [1]: 10 fold
SMILES: Nc1cc(NCC2CCCNC2)cnc1-c1cccc(Cl)c1Cl (stereo not shown) [Compound 2, 2-(2,3-dichlorophenyl)-N5-(piperidin-3-ylmethyl) pyridine-3,5-diamine]
FEP [2]: -11.93 kcal/mol | FEP [3]: -10.49 kcal/mol | ΔGexp [4]: -6.110 kcal/mol | Exp. ΔG [5]: -11.01 kcal/mol | Exp. ΔG [6]: -11.25 kcal/mol

SMILES: CN(C)CCNC(=O)NC[C@H]1CC[C@@H]2[C@H](O1)c1cc(C(F)(F)F)ccc1N[C@H]2c1ccccc1 [CHEMBL1077204]
Exp. ΔG [7]: -11.05 kcal/mol

SMILES: Cc1ccc(C(=O)N(CCN)C[C@H]2CC[C@@H]3[C@H](O2)c2cc(C(F)(F)F)ccc2N[C@H]3c2ccccc2)cc1 [CHEMBL1084431]
Exp. ΔG [7]: -9.8 kcal/mol

SMILES: Clc1ccc2c(c1)[C@H]1OCCC[C@H]1[C@H](c1ccccc1)N2 [CHEMBL1089393]
Exp. ΔG [7]: -8.38 kcal/mol

SMILES: CC(C)(C)c1ccc2c(c1)[C@H]1OCCC[C@H]1[C@H](c1ccccc1)N2 [CHEMBL1089056]
Exp. ΔG [7]: -9.44 kcal/mol

SMILES: NCCN(C[C@H]1CC[C@@H]2[C@H](O1)c1cc(C(F)(F)F)ccc1N[C@H]2c1ccccc1)c1ccccc1 [CHEMBL1093087]
Exp. ΔG [7]: -10.53 kcal/mol

SMILES: NC[C@H]1CC[C@@H]2[C@H](O1)c1cc(C(F)(F)F)ccc1N[C@H]2c1ccccc1 [CHEMBL1085666]
Exp. ΔG [7]: -10.5 kcal/mol

SMILES: CNC[C@H]1CC[C@@H]2[C@H](O1)c1cc(Br)cc(F)c1N[C@H]2c1ccccc1 [CHEMBL1082248]
Exp. ΔG [7]: -11.63 kcal/mol

IC50 [1, 10]: 15.1 ± 0.8 µM | ΔGexp [1]: -6.573 kcal/mol
SMILES: CC1(N)CCN(c2cnc(-c3cccc(F)c3Cl)c(N)c2)CC1 [Compound 5, 5-(4-amino-4-methylpiperidin-1-yl)-2-(2-chloro-3-fluorophenyl) pyridin-3-amine]
FEP [2]: -8.31 kcal/mol | ΔGexp [4]: -5.453 kcal/mol | Exp. ΔG [6]: -9.14 kcal/mol

IC50 [1, 8]: 10.7 µM | pIC50 ([1]; SHP-2_case sheet): 4.973 | IC50 [1, 9]: 10.7 µM | ΔG experiment [1]: -6.78
SMILES: CC1(N)CCN(c2cnc(-c3ccnc(Cl)c3Cl)c(N)c2)CC1 [A-S6]

SMILES: CC(C)(C)c1ccc2c(c1)[C@H]1OCCC[C@H]1[C@H](c1ccc(O)c(F)c1)N2 [CHEMBL1078774]
Exp. ΔG [7]: -10.6 kcal/mol

SMILES: CCN(CCO)C[C@H]1CC[C@@H]2[C@H](O1)c1cc(C(C)(C)C)ccc1N[C@H]2c1ccccc1 [CHEMBL1084935]
Exp. ΔG [7]: -10.53 kcal/mol

SMILES: CC(=O)NCCNC[C@H]1CC[C@@H]2[C@H](O1)c1cc(Br)cc(F)c1N[C@H]2c1ccccc1 [CHEMBL1082249]
Exp. ΔG [7]: -11.22 kcal/mol

SMILES: CNC[C@H]1CC[C@@H]2[C@H](O1)c1cc(C(C)(C)C)ccc1N[C@H]2c1ccccc1 [CHEMBL1086410]
Exp. ΔG [7]: -11.46 kcal/mol

SMILES: CC(C)(C)c1ccc2c(c1)[C@H]1OCCC[C@H]1[C@H](c1ccsc1)N2 [CHEMBL1084115]
Exp. ΔG [7]: -9.44 kcal/mol

SMILES: Cc1ccc2c(c1)[C@H]1OCCC[C@H]1[C@H](c1ccccc1)N2 [CHEMBL1088740]
Exp. ΔG [7]: -8.7 kcal/mol

SMILES: CNCCS(=O)(=O)NC[C@H]1CC[C@@H]2[C@H](O1)c1cc(C(F)(F)F)ccc1N[C@H]2c1ccccc1 [CHEMBL1084677]
Exp. ΔG [7]: -11.46 kcal/mol

SMILES: CN(C)CCOC(=O)NC[C@H]1CC[C@@H]2[C@H](O1)c1cc(C(F)(F)F)ccc1N[C@H]2c1ccccc1 [CHEMBL1084676]
Exp. ΔG [7]: -10.71 kcal/mol

SMILES: OCCNC[C@H]1CC[C@@H]2[C@H](O1)c1cc(Cl)cc(F)c1N[C@H]2c1ccccc1 [CHEMBL1096002]
Exp. ΔG [7]: -11.13 kcal/mol

SMILES: CN(C)CCS(=O)(=O)NC[C@H]1CC[C@@H]2[C@H](O1)c1cc(Cl)cc(F)c1N[C@H]2c1ccccc1 [CHEMBL1096003]
Exp. ΔG [7]: -11.87 kcal/mol

SMILES: FC(F)(F)c1ccc2c(c1)[C@H]1O[C@@H](Cn3cncn3)CC[C@H]1[C@H](c1ccccc1)N2 [CHEMBL1093088]
Exp. ΔG [7]: -11.22 kcal/mol

SMILES: CNC[C@H]1CC[C@@H]2[C@H](O1)c1cc(C(C)(C)C)ccc1N[C@H]2c1cccs1 [CHEMBL1077227]
Exp. ΔG [7]: -11.32 kcal/mol

SMILES: CN(C[C@H]1CC[C@@H]2[C@H](O1)c1cc(C(F)(F)F)ccc1N[C@H]2c1ccccc1)S(=O)(=O)CCCN [CHEMBL1084678]
Exp. ΔG [7]: -11.13 kcal/mol

SMILES: CN(C)CCCC(=O)NC[C@H]1CC[C@@H]2[C@H](O1)c1cc(Br)cc(F)c1N[C@H]2c1ccccc1 [CHEMBL1085692]
Exp. ΔG [7]: -11.32 kcal/mol

IC50 [1, 8]: 5.17 µM | pIC50 ([1]; SHP-2_case sheet): 5.286 | IC50 [1, 9]: 5.17 µM | ΔG experiment [1]: -7.208
SMILES: Nc1cc(NC2CCNC2)cnc1-c1cccc(Cl)c1Cl (stereo not shown) [A-S3]

SMILES: CC(C)(C)c1ccc2c(c1)[C@H]1OCCC[C@H]1[C@H](c1ccc(O)cc1)N2 [CHEMBL1078691]
Exp. ΔG [7]: -10.19 kcal/mol

SMILES: CC(C)(C)c1ccc2c(c1)[C@H]1OCCC[C@H]1[C@H](c1cccs1)N2 [CHEMBL1078998]
Exp. ΔG [7]: -10.37 kcal/mol
